Measurements reported in US20220202703A1, “IN SITU GEL-FORMING DELIVERY SYSTEMS, METHODS AND COMPOSITIONS” (Poly-Med, Inc., priority 2019, published 2022).

Assay: Erdafitinib batch release study in artificial urine at 37° C., HPLC
Format: physicochemical
Details: in solution / through in vitro study, HPLC PDA detection
Excerpt: Scope: Load Erdafitinib into a limited number of proprietary delivery systems and perform a batch release study in artificial urine to determine release and stability of the active agent. Erdafitinib sourced from publicly available supplier having 99% purity. Obtained as fine yellow powder. Viscoprene® used as a hydrosetting gel carrier presenting as a high viscosity liquid. An encapsulant was used to provide a diffusion barrier around the Viscoprene/Erdafitinib matrix for some samples.
Formulation 1: Viscoprene and diluent release matrix. Formulation 2: Viscoprene release matrix. Formulation 3: Viscoprene in Encapsulant A. Formulation 4: Viscoprene in Encapsulant B. Step 1: Prepared release matrices (Erdafitinib in Viscoprene) with or without diluent (active matrix). Each study specimen included approximately 12 mg of drug. Step 2: Active matrix was encapsulated for Formulations 3 and 4. Step 3: Formulations were placed in artificial urine (USP method) at 37° C. Step 4: At time points, artificial urine was changed to fresh artificial urine. Step 5: Samples were analyzed for Erdafitinib content by HPLC.
An Isocratic HPLC method (non-stability indicating) able to identify Erdafitinib using a C18 column and water/acetonitrile mobile phase. Calibration curve generated with a R2 value of 0.9999. […] Sample preparation: Erdafitinib mixed readily into Viscoprene matrices. […]

Structure (SMILES): COc1cc(OC)cc(N(CCNC(C)C)c2ccc3ncc(-c4cnn(C)c4)nc3c2)c1 [Erdafitinib, 1,2-Ethanediamine, N1-(3,5-dimethoxyphenyl)-N2-(1-methylethyl)-N1-(3-(1-methyl-1H-pyrazol-4-yl)-6-quinoxalinyl)-]
- Erdafitinib stability (in words): provisionally stable over a suitable timeframe
- Erdafitinib stability (in words) (listed as Erdatifinib): likely stable through in vitro study for extended duration
